Entries after “also recorded” stand apart in the source; their conditions may differ. Where a name gives a salt, the structure may show the parent alone.
Experiments:
[1] = test system: VC4 and 5 neurons of C. elegans SC_APP model; test: HCS microfluidic neurodegeneration assay in C. elegans SC_APP model; format: in vivo; settings: for effect on neurodegeneration of VC4 and 5 neurons in SC_APP model: D3 adult animals, liquid culture, doses 0.02, 0.2, 2 and 20 μM, vs vehicle-treated SC_APP (200 μM FUdR, 0.5% DMSO); for concentration of highest efficacy in protecting against neurodegeneration: SC_APP model, D3 animals, four doses 0.02-20 μM
[2] = test system: VC4 and 5 neurons of SC_APP vem-1/PGRMC1 null C. elegans; settings: earlier work, SC_APP model; cited from earlier work
[3] = test system: transgenic APP mouse model; settings: listed as SAS-0132; cited from earlier work

Row | SMILES | effect on neurodegeneration of VC4 and 5 neurons in SC_APP model [1] | PGRMC1 dependence of reduction of neurodegeneration [2] | cognitive performance in transgenic AD mice [3] | concentration of highest efficacy in protecting against neurodegeneration [1]
1 | CN1CCN(c2ccc3c(c2)[C@H]2C[C@@H]3CCN2C(=O)OCc2ccccc2)CC1 [Compound 1] | reduce neurodegeneration relative to the vehicle treated SC_APP group | reduced neurodegeneration through a pathway dependent upon PGRMC1 | improvement in cognitive performance; also recorded: efficacious | –
2 | OC(CNc1ccccc1)Cn1c2ccc(Br)cc2c2cc(Br)ccc21 (stereo not drawn) [Compound P7C3, P7C3] | – | – | – | 0.2 µM
3 | COc1ccc(S(=O)(=O)Nc2cc(Cl)cc(Cl)c2OC)cc1N1CCNCC1 [SB399885, SB 399885 hydrochloride] | protected the cholinergic neurons of the SC_APP model | – | – | 20 µM
4 | Fc1ccc(-n2cc(CCCCN3CCC4(CC3)OCc3ccccc34)c3ccccc32)cc1 [Siramesine] | increase neurodegeneration after a dosing threshold is exceeded despite an initial decrease at lower dosages | – | – | –
5 | C=C(c1ccc(C(=O)O)cc1)c1cc2c(cc1C)C(C)(C)CCC2(C)C [bexarotene] | protected the cholinergic neurons of the SC_APP model | – | – | 20 µM

Reference: PMC5955835 (ACS chemical neuroscience, 2018)
